# From PubChem BioAssay AID200 (DTP/NCI, 2004)
# Where “and” joins values, the source holds several entries; their conditions need not be identical. Equal values may be shown once. Toxic doses and inconclusive results are not listed.
# System: B6C3F1 mice, B16 melanoma ip, median survival T/C
# Test: NCI In Vivo Anticancer Drug Screen. Data for tumor model B16 Melanoma (intraperitoneal) in B6C3F1 mice
# Details: endpoint: median survival time, higher = longer survival
# How it was run: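 Values are T/C ratios: the measurement in treated animals divided by that in vehicle-treated controls, using survival or tumor size in mice carrying transplantable tumors.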
# [1] = dose: 12.5 mg/kg/injection, schedule: Q01DX009 (ip), vehicle: saline with Tween-80
# [2] = dose: 25.0 mg/kg/injection, schedule: Q01DX009 (ip), vehicle: saline with Tween-80
# [3] = dose: 1.5 mg/kg/injection, schedule: Q01DX009 (ip), vehicle: Klucel (hydroxypropylcellulose) (HPC)
# [4] = dose: 3.0 mg/kg/injection, schedule: Q01DX009 (ip), vehicle: Klucel (hydroxypropylcellulose) (HPC)
# [5] = dose: 6.0 mg/kg/injection, schedule: Q01DX009 (ip), vehicle: Klucel (hydroxypropylcellulose) (HPC)
# [6] = dose: 12.0 mg/kg/injection, schedule: Q01DX009 (ip), vehicle: Klucel (hydroxypropylcellulose) (HPC)
structure (smiles),measurement,setting,value
COc1ccc(CC2C(=O)NC(C)C(=O)N(C)C3Cc4ccc(cc4)Oc4cc(ccc4O)CC(C(=O)NC(C)C(=O)NC(C)C(=O)N2C)N(C)C3=O)cc1 (stereo unspecified),T/C,"dose: 0.25 mg/kg/injection, schedule: Q01DX009 (ip), vehicle: saline with Tween-80",158 % of control
same,T/C,"dose: 0.5 mg/kg/injection, schedule: Q01DX005 (ip), vehicle: saline with Tween-80",110 % of control
same,T/C,"dose: 0.5 mg/kg/injection, schedule: Q01DX005 (iv), vehicle: saline with Tween-80",102 % of control and 104 % of control
same,T/C,"dose: 0.5 mg/kg/injection, schedule: Q01DX009 (ip), vehicle: saline + Tween-80 + alcohol",118 % of control
same,T/C,"dose: 0.5 mg/kg/injection, schedule: Q01DX009 (ip), vehicle: saline with Tween-80",162 % of control and 166 % of control
same,T/C,"dose: 1.0 mg/kg/injection, schedule: Q01DX005 (ip), vehicle: saline with Tween-80",124 % of control
same,T/C,"dose: 1.0 mg/kg/injection, schedule: Q01DX005 (iv), vehicle: saline with Tween-80",109 % of control and 105 % of control
same,T/C,"dose: 1.0 mg/kg/injection, schedule: Q01DX009 (ip), vehicle: saline + Tween-80 + alcohol",117 % of control
same,T/C,"dose: 1.0 mg/kg/injection, schedule: Q01DX009 (ip), vehicle: saline with Tween-80",91 % of control
same,T/C,"dose: 2.0 mg/kg/injection, schedule: Q01DX005 (iv), vehicle: saline with Tween-80",122 % of control and 107 % of control
same,T/C,"dose: 2.0 mg/kg/injection, schedule: Q01DX009 (ip), vehicle: saline with Tween-80",122 % of control
same,T/C,"dose: 4.0 mg/kg/injection, schedule: Q01DX005 (ip), vehicle: saline with Tween-80",122 % of control
same,T/C,"dose: 4.0 mg/kg/injection, schedule: Q01DX005 (iv), vehicle: saline with Tween-80",109 % of control and 111 % of control
same,T/C,"dose: 4.0 mg/kg/injection, schedule: Q01DX009 (ip), vehicle: other",150 % of control
same,T/C,"dose: 4.0 mg/kg/injection, schedule: Q01DX009 (ip), vehicle: saline with Tween-80",161 % of control
same,T/C,"dose: 8.0 mg/kg/injection, schedule: Q01DX005 (iv), vehicle: saline with Tween-80",110 % of control and 116 % of control
same,T/C,"dose: 8.0 mg/kg/injection, schedule: Q01DX009 (ip), vehicle: other",159 % of control
CCN(CC)Cc1cc2[nH]c3c4ccc(Cl)cc4ncc3c2cc1OC,T/C,[1],91 % of control and 102 % of control
same,T/C,[2],112 % of control and 102 % of control
same,T/C,"dose: 50.0 mg/kg/injection, schedule: Q01DX009 (ip), vehicle: saline with Tween-80",98 % of control and 107 % of control
O=C(N/N=C/c1c(O)ccc2ccccc12)C(=O)N/N=C/c1c(O)ccc2ccccc12,T/C,[1],110 % of control and 94 % of control and 107 % of control
same,T/C,[2],111 % of control and 112 % of control and 118 % of control
same,T/C,"dose: 100.0 mg/kg/injection, schedule: Q01DX009 (ip), vehicle: saline with Tween-80",94 % of control
O=C1NC(=O)NC(C(=O)O)N1,T/C,"dose: 0.75 mg/kg/injection, schedule: Q01DX009 (ip), vehicle: Klucel (hydroxypropylcellulose) (HPC)",108 % of control
same,T/C,[3],106 % of control
same,T/C,[4],116 % of control
same,T/C,[5],106 % of control
same,T/C,[6],107 % of control
CCC(C)Nc1ccc(N)cc1 (stereo unspecified),T/C,"dose: 0.09 mg/kg/injection, schedule: Q01DX009 (ip), vehicle: saline + Tween-80 + alcohol",98 % of control
same,T/C,"dose: 0.18 mg/kg/injection, schedule: Q01DX009 (ip), vehicle: saline + Tween-80 + alcohol",94 % of control
same,T/C,"dose: 0.37 mg/kg/injection, schedule: Q01DX009 (ip), vehicle: saline + Tween-80 + alcohol",109 % of control
same,T/C,"dose: 0.75 mg/kg/injection, schedule: Q01DX009 (ip), vehicle: saline + Tween-80 + alcohol",109 % of control
same,T/C,[3],91 % of control
same,T/C,"dose: 1.5 mg/kg/injection, schedule: Q01DX009 (ip), vehicle: saline + Tween-80 + alcohol",113 % of control
same,T/C,[4],111 % of control
same,T/C,"dose: 3.0 mg/kg/injection, schedule: Q01DX009 (ip), vehicle: saline + Tween-80 + alcohol",97 % of control
same,T/C,[5],96 % of control
same,T/C,[6],89 % of control
O=CC(O)C(O)C(O)C(O)C(=O)O.[NH-]C1CCCCC1[NH-].[Pt+2] (stereo unspecified),T/C,"dose: 0.19 mg/kg/injection, schedule: Q01DX009 (ip), vehicle: saline",108 % of control
same,T/C,"dose: 1.5 mg/kg/injection, schedule: Q01DX009 (ip), vehicle: saline",177 % of control
same,T/C,"dose: 3.0 mg/kg/injection, schedule: Q01DX009 (ip), vehicle: saline",187 % of control
